Measurements reported in patent US8518973B2, “Compounds having 4-pyridylalkylthio group as a substituent” (Santen Pharmaceutical Co., Ltd., priority 2003, dated 2013).

Each molecule was assayed on VEGF-induced HUVEC growth (assay: VEGF-induced HUVEC growth reaction evaluation system (cell growth inhibitory action test)). Conditions: Homo sapiens, 72 h, 20 μg/ml test compound solution added 5 μl per well (100 μl), VEGF solution 400 ng/ml 5 μl per well, three days, absorbance at 450 nm, read-out: Cell growth inhibition rate (%).
Assay type: cell-based
Method: Cell growth inhibitory action tests were carried out using a VEGF-induced HUVEC growth reaction evaluation system (HUVEC stands for human umbilical vein endothelial cells), which is one of widely-used methods of evaluating in vitro angiogenesis inhibitory effects of drugs.
As one of widely-used methods of evaluating angiogenesis inhibitory effects of drugs, a cell growth inhibitory action test using a VEGF-induced HUVEC growth reaction evaluation system was reported in Cancer Res., 59, 99-106(1999). According to the method described in the above-mentioned literature, cell growth inhibitory action tests of the present compounds were carried out, their cell growth inhibition rates were calculated, and angiogenesis inhibitory effects of the present compounds were evaluated using the obtained rates as indexes.
Each test compound was dissolved in dimethyl sulfoxide (hereinafter abbreviated as “DMSO”), and the obtained solution was diluted with commercially available phosphoric acid buffer solution (hereinafter abbreviated as “PBS”) to prepare a 20 μg/ml test compound solution.
HUVEC was suspended in a 0.5% fetal bovine serum (hereinafter abbreviated as “FBS”)-containing F12K medium to prepare a 2×10^4 cells/ml HUVEC suspension.
VEGF was dissolved in 0.1% bovine serum albumin-containing PBS, and the obtained solution was diluted with the 0.5% FBS-containing F12K medium to prepare a 400 ng/ml VEGF solution.
• 1) The HUVEC suspension was inoculated in each amount of 100 μl into each well of a 96-well plate coated with I type collagen (2×10^3 cells per well). • 2) One day after inoculation, the test compound solution was added in an amount of 5 μl per well. • 3) One hour after adding the test compound solution, the VEGF solution was added in an amount of 5 μl per well. • 4) Three days after adding the VEGF solution, cell counting kit-8(Dojin Chemical Co., Ltd.) was added in an amount of 10 μl per well. • 5) After three hours, the above-mentioned plate was attached to an absorptiometer (multi label counter ARVO), and absorbance at 450 nm of each well suspension (hereinafter referred to as “test compound suspension”) was measured. • 6) A test was carried out in the same manner as in 1) to 5) except that 1.0% DMSO was used instead of the test compound solution.
Incubation was carried out under conditions of 37° C., 5% carbon dioxide and 95% air in an incubator throughout the above-mentioned test steps.
Cell growth inhibition rates, which are indexes of angiogenesis inhibitory effects, were calculated by the following calculation equation.
Molecule `Cc1cc(NC(=O)c2sccc2SCc2ccncc2)ccc1F` [1-252, N-(4-Fluoro-3-methylphenyl)-3-(4-pyridylmethylthio)thiophene-2-carboxamide] has an inhibition at 20 µg/mL (stock) of 100%. For `Cc1cccc(NC(=O)c2cccnc2SCc2cc[n+]([O-])cc2)c1` [4-3, N-(3-Methylphenyl)-2-(1-oxopyridin-4-ylmethylthio)pyridine-3-carboxamide], the inhibition at 20 µg/mL (stock) was 100%. Molecule `O=C(Nc1ccc2c(c1)CCC2)c1sccc1SCc1ccncc1` [1-283, N-(5-Indanyl)-3-(4-pyridylmethylthio)thiophene-2-carboxamide] has an inhibition at 20 µg/mL (stock) of 100%. `O=C(Nc1cc(F)cc(C(F)(F)F)c1)c1cccnc1SCc1ccncc1` [1-83, N-(3-Fluoro-5-trifluoromethylphenyl)-2-(4-pyridylmethylthio)pyridine-3-carboxamide] was tested, and the inhibition at 20 µg/mL (stock) was 100%. `CC(C)Oc1ccc(NC(=O)c2cccnc2SCc2ccncc2)cc1` [1-55, N-(4-Isopropoxyphenyl)-2-(4-pyridylmethylthio)pyridine-3-carboxamide] showed an inhibition at 20 µg/mL (stock) of 100%. `O=C(Nc1ccc2c(c1)CCC2)c1cccnc1SCc1ccnc(F)c1` [1-215, 2-(2-Fluoropyridin-4-ylmethylthio)-N-(5-indanyl)pyridine-3-carboxamide] showed an inhibition at 20 µg/mL (stock) of 100%. Work on `O=C(Nc1ccc(F)c(Cl)c1)c1cccnc1SCc1ccncc1` [1-75, N-(3-Chloro-4-fluorophenyl)-2-(4-pyridylmethylthio)pyridine-3-carboxamide] yielded an inhibition at 20 µg/mL (stock) of 100%. Molecule `O=C(Nc1cccc(Cl)c1)c1sccc1SCc1ccncc1` [1-249, N-(3 Chlorophenyl)3-(4-pyridylmethylthio)thiophene-2-carboxamide] has an inhibition at 20 µg/mL (stock) of 100%. `O=C(Nc1cc(Cl)cc(Cl)c1)c1cccnc1SCc1ccncc1` [1-84, N-(3,5-Dichlorophenyl)-2-(4-pyridylmethylthio)pyridine-3-carboxamide] showed an inhibition at 20 µg/mL (stock) of 100%. For `Cc1cccc(NC(=O)c2cscc2SCc2ccncc2)c1` [1-292, N-(3-Methylphenyl) 4 (4-pyridylmethylthio)thiophene-3 carboxamide], the inhibition at 20 µg/mL (stock) was 100%. Molecule `O=C(Nc1ccc(C(F)(F)F)cc1)c1sccc1SCc1ccncc1` [1-255, 3-(4-Pyridylmethylthio)-N-(4-trifluoromethylphenyl)thiophene-2-carboxamide] has an inhibition at 20 µg/mL (stock) of 85%. `CN(C)c1ccc(NC(=O)c2cccnc2SCc2ccncc2)cc1` [1-64, N-(4-Dimethylaminophenyl)-2-(4-pyridylmethylthio)pyridine-3-carboxamide] gave an inhibition at 20 µg/mL (stock) of 100%. Work on `COCCNC(=O)c1cc(CSc2ncccc2C(=O)Nc2cc(C)cc(C)c2)ccn1` [7-4, N-(3,5-Dimethylphenyl)-2-[2-(2-methoxyethylaminocarbonyl)pyridin-4-ylmethylthio]pyridine-3-carboxamide] yielded an inhibition at 20 µg/mL (stock) of 100%. With `CNC(=O)c1cc(CSc2ncccc2C(=O)Nc2cc(C)cc(C)c2)ccn1` [7-3, N-(3,5-Dimethylphenyl)-2-(2-methylaminocarbonylpyridin-4-ylmethylthio)pyridine-3-carboxamide] the inhibition at 20 µg/mL (stock) was 100%. `CCCc1ccc(NC(=O)c2cccnc2SCc2ccncc2)cc1` [1-49, N-(4-n-Propylphenyl)-2-(4-pyridylmethylthio)pyridine-3-carboxamide] gave an inhibition at 20 µg/mL (stock) of 100%. In the case of `O=C(Nc1cnc2ccccc2c1)c1cccnc1SCc1ccncc1` [1-20, 2-(4-Pyridylmethylthio)-N-(3-quinolyl)pyridine-3-carboxamide], the inhibition at 20 µg/mL (stock) is reported as 100%. For `O=C(Nc1cccc(C(F)(F)F)c1)c1sccc1SCc1ccncc1` [1-276, 3-(4-Pyridylmethylthio)-N-(3-trifluoromethylphenyl)thiophene-2-carboxamide], the inhibition at 20 µg/mL (stock) was 100%. For `CCCNC(=O)c1cc(CSc2ncccc2C(=O)Nc2cc(C)cc(C)c2)ccn1` [7-1, N-(3,5-Dimethylphenyl)-2(2-n-propylaminocarbonylpyridin-4-yl-methylthio)pyridine 3 carboxamide], the inhibition at 20 µg/mL (stock) was 100%. `O=C(Nc1ccc(F)cc1F)c1cccnc1SCc1ccncc1` [1-70, N-(2,4-Difluorophenyl)-2-(4-pyridylmethylthio)pyridine-3-carboxamide] was tested, and the inhibition at 20 µg/mL (stock) was 58%. `Cc1cc(CSc2ncccc2C(=O)Nc2ccc(OC(F)(F)F)cc2)ccn1` [1-308, 2-(2-Methylpyridin-4-ylmethylthio)-N-(4-trifluoromethoxyphenyl)pyridine-3-carboxamide] was tested, and the inhibition at 20 µg/mL (stock) was 92%. For `CCCCc1ccc(NC(=O)c2cccnc2SCc2ccncc2)cc1` [1-50, N-(4-n-Butylphenyl)-2-(4-pyridylmethylthio)pyridine-3-carboxamide], the inhibition at 20 µg/mL (stock) was 94%. `O=C(Nc1ccc(OC(F)(F)F)cc1)c1cccnc1SCc1ccnc(Cl)c1` [1-227, 2-(2-Chloropyridin-4-ylmethylthio)-N-(4-trifluoromethoxyphenyl)pyridine-3-carboxamide] was tested, and the inhibition at 20 µg/mL (stock) was 60%. In the case of `CCOC(=O)c1cc(CSc2ncccc2C(=O)Nc2cc(C)cc(C)c2)ccn1` [1-241, N-(3,5-dimethylphenyl)-2-(2-ethoxycarbonylpyridin-4-ylmethylthio)pyridine-3-carboxamide], the inhibition at 20 µg/mL (stock) is reported as 96%. `CN(C)c1ccc(NC(=O)c2ccccc2SCc2ccncc2)cc1` [1-91, N-(4-Dimethylaminophenyl)-2-(4-pyridylmethylthio)benzamide] gave an inhibition at 20 µg/mL (stock) of 100%. Molecule `Cc1cc(C)cc(NC(=O)c2cccnc2SCc2ccnc(C#N)c2)c1` [1-236, 2-(2-Cyanopyridin-4-ylmethylthio)-N-(3,5-dimethylphenyl)pyridine-3-carboxamide] has an inhibition at 20 µg/mL (stock) of 100%. Work on `CC(C)c1cccc(NC(=O)c2cccnc2SCc2cc[n+]([O-])cc2)c1` [4-6, N-(3-Isopropylphenyl)-2-(1-oxopyridin-4-ylmethylthio)pyridine-3-carboxamide] yielded an inhibition at 20 µg/mL (stock) of 100%. `Cc1ccc(NC(=O)c2sccc2SCc2ccncc2)cc1F` [1-248, N-(3-Fluoro-4-methylphenyl)-3-(4-pyridylmethylthio)thiophene-2-carboxamide] showed an inhibition at 20 µg/mL (stock) of 75%. `COc1cc(OC)c(NC(=O)c2ccccc2SCc2ccncc2)cc1Cl` [1-102, N-(5-Chloro-2,4-dimethoxyphenl)-2-(4-pyridylmethylthio)benzamide] gave an inhibition at 20 µg/mL (stock) of 55%. For `Cc1cc(C)cc(NC(=O)c2cccnc2SCc2ccncc2Cl)c1` [1-228, 2-(3-Chloropyridin-4-ylmethylthio)-N-(3,5-dimethylphenyl)pyridine-3-carboxamide], the inhibition at 20 µg/mL (stock) was 100%. Work on `Cc1cccc(NC(=O)c2sccc2SCc2ccncc2)c1` [1-263, N-(3-Methylphenyl)-3-(4-pyridylmethylthio)thiophene-2-carboxamide] yielded an inhibition at 20 µg/mL (stock) of 100%. `CCCc1ccc(NC(=O)c2sccc2SCc2ccncc2)cc1` [1-270, N-(4-n-Propylphenyl)-3-(4-pyridylmethylthio)thiophene-2-carboxamide] was tested, and the inhibition at 20 µg/mL (stock) was 99%. `CC(C)c1cccc(NC(=O)c2cccnc2SCc2ccncc2)c1` [1-35, N-(3-Isopropylphenyl)-2-(4-pyridylmethylthio)pyridine-3-carboxamide] was tested, and the inhibition at 20 µg/mL (stock) was 100%. Molecule `CC(C)c1cccc(NC(=O)c2ccccc2SCc2ccncc2)c1` [1-92, N-(3-Isopropylphenyl)-2-(4-pyridylmethylthio)benzamide] has an inhibition at 20 µg/mL (stock) of 100%. `O=C(Nc1ccc(F)c(C(F)(F)F)c1)c1cccnc1SCc1ccncc1` [1-77, N-(4-Fluoro-3-trifluoromethylphenyl)-2-(4-pyridylmethylthio)pyridine-3-carboxamide] was tested, and the inhibition at 20 µg/mL (stock) was 100%. Molecule `CC(C)Oc1ccc(NC(=O)c2sccc2SCc2ccncc2)cc1` [1-246, N-(4-Isopropoxyphenyl)-3-(4-pyridylmethylthio)thiophene-2-carboxamide] has an inhibition at 20 µg/mL (stock) of 76%. For `Cc1cc(NC(=O)c2cccnc2SCc2ccncc2)ccc1OC(F)(F)F` [1-175, N-(3-Methyl-4-trifluoromethoxyphenyl)-2-(4-pyridylmethylthio)pyridine-3-carboxamide], the inhibition at 20 µg/mL (stock) was 100%.
